Holding throughout (assay type): cell-based
One assay concerns the target OR8/OR7 (Anopheles gambiae, UniProt Q7PUT5+Q7QCC7). As to the kind of experiment: Ca2+-imaging of stable HEK293T cell line OR8/OR7. To be noted: for inhibition at 4 µM: HEK-293T, compound applied at 4 μM, read-out: Percent Inhibition OR8 OR7. The method, then:
(§1) Full-length cDNAs for mosquito (Anopheles gambiae) odorant receptor (OR1, OR2, OR7, OR8, OR28), and fly (Drosophila melanogaster) odorant receptor (Or47a, Or83b), mouse TRP channel (TRPM8), and mouse serotonin receptor (5HT3) were obtained and subcloned into mammalian expression vectors. The following mammalian expression vectors were used:
(§2) Stable cell lines OR1/OR7, OR2/OR7, OR8/OR7, OR10/OR7, OR28/OR7 and TRPM8 were generated from HEK293T cells. HEK293T-based cell lines were cultured in DMEM supplemented with these additional antibiotics: 6 μg/mL blasticidin and 1 μg/mL puromycin, with the exception of the TRPM8 cell lines, which was cultured in DMEM supplemented with 1 μg/mL puromycin.
(§3) Cells were trypsinized and split into 35 mm dishes one day before transfection. Confluent cells (60-70%) in 35 mm dishes were transfected with 1 μg of insect OR(X) plasmids in pME18s-bla and 1 μg of OR7-pME18s-puro using lipofectamine 2000. For Anopheles odorant receptors, two plasmids were co-transfected into HEK cells: the ligand-specific receptor (OR1, OR2, OR8, OR28) and the corresponding olfactory co-receptor: OR7. Cell lines containing TRPM8 were transfected with single plasmid.
(§4) Stable cell lines were cultured in 10 cm dishes, and confluent cells (70-80%) were trypsinized. 10,000 cells/20 μL were transferred into each well of 384-well plates coated with poly-D-lysine, and cultured for 2 days. For Flip-In T-Rex cells (cell lines expressing Or47a/Or83b and 5HT3), 5 μL of tetracycline (5 μg/mL) were added 1 day before the assay. 20 μL of Ca-4 dye was loaded into each well for 1.5 hr at room temperature in the dark, and the dye-loaded plates were subjected to Ca^2+-imaging using a Hamamatsu FDSS6000 real time fluorescence plate reader. Odorant solutions (9× final concentration) were prepared by dissolving 1M stock solutions into Hank's Buffered Salt Solution (HBSS), and 30 μL of odor solution was transferred to each well in 384-well plates.
(§5) Compounds ([…] in DMSO) were stored in 384-well plates, and last two columns (32 wells total) contained only DMSO. 200 nL of small compounds were transferred into the odorant plates before the assay using the Perkin-Elmer Janus workstation. The odorant plates were spun down to remove air bubbles, and placed on the FDSS6000 plate loader, and 5 μL of odorant solution was applied to the cell plate on the FDSS6000. Ca^2+ increase was monitored with fluorescence at 525 nm by excitation at 485 nm.

A further assay concerns the target OR10/OR7 (Anopheles gambiae, UniProt B5U0U7+Q7QCC7). As to the kind of experiment: Ca2+-imaging of stable HEK293T cell line OR10/OR7. Conditions: for inhibition at 4 µM: HEK-293T, compound applied at 4 μM, read-out: Percent Inhibition OR10 OR7. As for the experimental part: as §2
After one day of incubation, the transfected cells were transferred into 10 cm dishes with DMEM containing antibiotics as follows: • 0.5 μg/mL of blasticidin for OR1/OR7, OR2/OR7, OR8/OR7, OR10/OR7, OR28/OR7 • 0.2 μg/mL of puromycin for TRPM8.
as §4, §5

The next assay deals with OR28/OR7 (Anopheles gambiae, UniProt A0A1S4GFY3+Q7QCC7). As to the kind of experiment: Ca2+-imaging of stable HEK293T cell line OR28/OR7. To be noted: for inhibition at 4 µM: HEK-293T, compound applied at 4 μM, read-out: Percent Inhibition OR28 OR7. As for the experimental part:
as §1, §2, §3, §4, §5

The next assay has as its target T1, mOREG (Mus musculus, UniProt Q920P2).
T1 sequence (Q920P2 1-313): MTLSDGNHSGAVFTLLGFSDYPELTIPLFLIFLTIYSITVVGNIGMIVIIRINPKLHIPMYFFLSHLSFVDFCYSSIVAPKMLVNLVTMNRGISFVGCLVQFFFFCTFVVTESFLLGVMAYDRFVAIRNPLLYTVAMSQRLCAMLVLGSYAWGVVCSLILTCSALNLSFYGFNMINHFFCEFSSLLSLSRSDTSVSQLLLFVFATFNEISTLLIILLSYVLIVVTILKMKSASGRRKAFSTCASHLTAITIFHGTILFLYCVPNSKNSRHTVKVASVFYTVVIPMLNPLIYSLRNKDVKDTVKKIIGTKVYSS
As to the kind of experiment: Ca2+-imaging, control receptor mOREG. To be noted: for inhibition at 4 µM: compound applied at 4 μM, read-out: Percent Inhibition mOREG. As for the experimental part:
as §4, with “plates. The last two columns of the plate (32 wells total) were used as control wells as follows: • negative control with HBSS buffer (16 wells) • positive control with ligands (16 wells).” for “plates.”
as §5

The next assay concerns the target T2, TRP channel (TRPM8) (Mus musculus, UniProt Q8R4D5).
T2 construct: Full-length cDNAs for mosquito (Anopheles gambiae) odorant receptor (OR1, OR2, OR7, OR8, OR28), and fly (Drosophila melanogaster) odorant receptor (Or47a, Or83b), mouse TRP channel (TRPM8); expressed in transfected cells
The assay is described as follows: Ca2+-imaging of stable HEK293T cell line TRPM8. To be noted: for inhibition at 4 µM: HEK-293T, compound applied at 4 μM, read-out: Percent Inhibition TRPM8. The method, then: as §1, §2, §3, §4, §5

The mark [1] stands for this setting: ligand menthol 300 μM, read-out: IC50 TRPM8.
The mark [2] stands for this setting: ligand 1-octen-3-ol 30 μM, read-out: IC50 OR8 OR7.
The mark [3] stands for this setting: ligand indole 30 μM, read-out: IC50 OR10 OR7.
The mark [4] stands for this setting: ligand acetophenone 300 μM, read-out: IC50 OR28 OR7.

Molecules are shown by their SMILES. Like-named read-outs stand apart in the source and are kept apart here.

As usually defined, the inhibition is the drop in the measured response relative to a control, in per cent. In general, IC50 refers to the point on the concentration scale where inhibition reaches its midpoint.

Sequence of OR10/OR7 (Q7QCC7 whole entry): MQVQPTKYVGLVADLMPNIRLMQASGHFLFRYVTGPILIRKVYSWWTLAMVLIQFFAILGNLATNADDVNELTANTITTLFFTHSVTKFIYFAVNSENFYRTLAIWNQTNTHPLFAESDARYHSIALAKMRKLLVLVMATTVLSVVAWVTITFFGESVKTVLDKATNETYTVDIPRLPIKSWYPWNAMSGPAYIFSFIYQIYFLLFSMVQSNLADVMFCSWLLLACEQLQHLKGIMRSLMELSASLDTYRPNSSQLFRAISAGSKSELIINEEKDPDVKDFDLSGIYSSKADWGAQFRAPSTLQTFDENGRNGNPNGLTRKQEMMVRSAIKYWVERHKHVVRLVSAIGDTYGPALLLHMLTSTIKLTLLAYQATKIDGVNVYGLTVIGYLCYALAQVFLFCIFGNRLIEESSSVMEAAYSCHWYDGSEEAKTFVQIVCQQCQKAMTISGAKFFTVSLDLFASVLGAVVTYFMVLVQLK
Sequence of OR10/OR7 (B5U0U7 entry or part of it): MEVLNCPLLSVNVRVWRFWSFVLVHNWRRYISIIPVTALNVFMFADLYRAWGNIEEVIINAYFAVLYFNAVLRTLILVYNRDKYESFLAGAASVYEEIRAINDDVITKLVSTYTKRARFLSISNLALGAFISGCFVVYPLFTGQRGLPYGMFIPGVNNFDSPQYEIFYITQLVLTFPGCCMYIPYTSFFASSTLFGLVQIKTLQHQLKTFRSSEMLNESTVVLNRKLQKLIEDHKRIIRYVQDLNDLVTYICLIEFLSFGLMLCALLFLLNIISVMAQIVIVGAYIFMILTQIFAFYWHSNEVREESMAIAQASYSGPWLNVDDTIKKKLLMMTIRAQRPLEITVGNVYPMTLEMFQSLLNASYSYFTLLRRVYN
Sequence of OR8/OR7 (Q7QCC7 whole entry): as the sequence (Q7QCC7 whole entry) above
Sequence of OR8/OR7 (Q7PUT5 entry or part of it): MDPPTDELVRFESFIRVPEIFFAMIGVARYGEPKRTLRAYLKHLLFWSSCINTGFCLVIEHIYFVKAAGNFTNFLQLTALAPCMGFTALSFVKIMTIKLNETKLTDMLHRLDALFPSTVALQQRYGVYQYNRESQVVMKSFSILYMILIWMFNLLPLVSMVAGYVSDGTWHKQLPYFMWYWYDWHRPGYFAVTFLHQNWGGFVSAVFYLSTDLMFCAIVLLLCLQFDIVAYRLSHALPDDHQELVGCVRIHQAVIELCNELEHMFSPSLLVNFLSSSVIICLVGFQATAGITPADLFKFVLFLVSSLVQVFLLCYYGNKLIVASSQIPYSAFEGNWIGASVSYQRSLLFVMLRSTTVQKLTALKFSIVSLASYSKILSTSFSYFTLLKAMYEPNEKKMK
Sequence of OR28/OR7 (A0A1S4GFY3 entry or part of it): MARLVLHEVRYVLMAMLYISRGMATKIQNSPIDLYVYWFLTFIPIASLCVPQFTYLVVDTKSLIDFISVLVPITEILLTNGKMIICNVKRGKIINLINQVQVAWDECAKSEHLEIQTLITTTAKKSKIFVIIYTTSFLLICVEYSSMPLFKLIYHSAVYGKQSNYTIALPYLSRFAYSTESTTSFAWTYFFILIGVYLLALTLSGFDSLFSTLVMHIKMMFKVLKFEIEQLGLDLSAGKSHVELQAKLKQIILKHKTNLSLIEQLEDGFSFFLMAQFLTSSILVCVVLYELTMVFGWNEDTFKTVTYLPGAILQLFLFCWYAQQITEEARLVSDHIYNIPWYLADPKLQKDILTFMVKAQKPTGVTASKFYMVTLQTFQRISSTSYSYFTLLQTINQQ
Sequence of OR28/OR7 (Q7QCC7 whole entry): as the sequence (Q7QCC7 whole entry) above
T2 sequence (Q8R4D5 whole entry): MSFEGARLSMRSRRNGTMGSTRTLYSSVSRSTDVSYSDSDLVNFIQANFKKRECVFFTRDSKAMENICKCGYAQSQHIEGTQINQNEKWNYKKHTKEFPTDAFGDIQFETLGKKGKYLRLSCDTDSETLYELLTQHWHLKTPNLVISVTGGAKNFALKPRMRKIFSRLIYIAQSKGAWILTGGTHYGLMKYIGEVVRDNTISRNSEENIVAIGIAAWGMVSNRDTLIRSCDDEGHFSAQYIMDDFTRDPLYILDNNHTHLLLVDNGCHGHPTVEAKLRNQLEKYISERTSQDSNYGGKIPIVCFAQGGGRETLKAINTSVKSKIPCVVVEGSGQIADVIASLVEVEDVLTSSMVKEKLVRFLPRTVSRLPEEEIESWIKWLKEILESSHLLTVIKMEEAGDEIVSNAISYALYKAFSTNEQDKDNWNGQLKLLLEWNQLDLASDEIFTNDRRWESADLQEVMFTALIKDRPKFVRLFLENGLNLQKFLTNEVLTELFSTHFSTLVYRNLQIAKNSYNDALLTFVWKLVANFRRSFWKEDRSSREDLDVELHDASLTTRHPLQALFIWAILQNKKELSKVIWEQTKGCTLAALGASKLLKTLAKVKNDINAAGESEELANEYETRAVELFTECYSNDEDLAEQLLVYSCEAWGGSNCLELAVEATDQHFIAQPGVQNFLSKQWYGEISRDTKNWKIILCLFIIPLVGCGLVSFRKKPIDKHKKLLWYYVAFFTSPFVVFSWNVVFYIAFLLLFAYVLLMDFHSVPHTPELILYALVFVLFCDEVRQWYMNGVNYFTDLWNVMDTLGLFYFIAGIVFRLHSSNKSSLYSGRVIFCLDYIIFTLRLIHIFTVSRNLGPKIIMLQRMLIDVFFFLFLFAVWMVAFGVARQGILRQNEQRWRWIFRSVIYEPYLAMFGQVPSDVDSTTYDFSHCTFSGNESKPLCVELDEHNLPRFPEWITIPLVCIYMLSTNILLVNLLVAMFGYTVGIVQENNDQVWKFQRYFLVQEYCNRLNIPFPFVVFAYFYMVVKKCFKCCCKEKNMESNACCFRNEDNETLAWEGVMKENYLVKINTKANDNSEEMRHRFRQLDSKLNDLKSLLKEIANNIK

For `O=C(c1c(F)c(F)cc(F)c1F)N1CCOC(Cc2ccccc2)C1` (stereo not drawn) [RU-0050393], the inhibition at 4 µM on OR8/OR7 is 26 to 50%; at OR10/OR7, 51 to 74%; at OR28/OR7, above 75%; on mOREG it was 26 to 50%; at TRP channel (TRPM8), below 25%. Moreover, the IC50 on OR10/OR7 (Table B, read-out: IC50 OR10) is above 1 µM; on OR28/OR7 (Table B, read-out: IC50 OR28), below 0.1 µM.

As to `CSc1nc(NC(C)C)nc(NC(C)C)n1` [RU-T2], the IC50 on OR8/OR7 is below 2 µM; at OR10/OR7, 2 to 20 µM; against OR28/OR7, 2 to 20 µM; at TRP channel (TRPM8) (setting [1]) it was above 20 µM.

With `O=C(CCC1CCN(C(=O)c2cccc(-n3cccn3)c2)CC1)Nc1ccccc1` [RU-0032465], the inhibition at 4 µM on OR8/OR7 was 51 to 74%; on OR10/OR7 it was below 25%; at OR28/OR7, above 75%; at mOREG, 26 to 50%; at TRP channel (TRPM8) it was 26 to 50%. The IC50 is above 1 µM at OR8/OR7 (Table B, read-out: IC50 OR8) and below 0.1 µM at OR28/OR7 (Table B, read-out: IC50 OR28).

In the case of `C=CCN(Cc1nccn1Cc1ccc(Cl)c(Cl)c1)C(=O)c1ccccc1F` [RU-0047955], the inhibition at 4 µM was below 25% on OR8/OR7; above 75% on OR10/OR7; above 75% on OR28/OR7; below 25% at mOREG; below 25% at TRP channel (TRPM8). For the same compound, the IC50 was below 0.1 µM at OR10/OR7 (Table B, read-out: IC50 OR10) and below 0.1 µM on OR28/OR7 (Table B, read-out: IC50 OR28).

As to `C=CCN(Cc1nccn1Cc1ccccc1F)C(=O)C1CCCC1` [RU-0058964], the inhibition at 4 µM was 26 to 50% on OR8/OR7; above 75% at OR10/OR7; above 75% at OR28/OR7; 26 to 50% on mOREG; 26 to 50% at TRP channel (TRPM8). The IC50 on OR10/OR7 (Table B, read-out: IC50 OR10) is below 0.1 µM; on OR28/OR7 (Table B, read-out: IC50 OR28), below 0.1 µM.

As for `c1ccc(CNc2nc(NCc3ccco3)nc(N3CCOCC3)n2)cc1` [RU-0020050], the inhibition at 4 µM is above 75% at OR8/OR7; below 25% on OR10/OR7; above 75% at OR28/OR7; 26 to 50% at mOREG; 26 to 50% at TRP channel (TRPM8). In addition, the IC50 at OR8/OR7 (Table B, read-out: IC50 OR8) is above 1 µM; at OR28/OR7 (Table B, read-out: IC50 OR28), 0.1 to 1 µM.

`CCNc1nc(NCC)nc(SC)n1` [RU-T4]: the IC50 at OR8/OR7 is 2 to 20 µM; on OR10/OR7 it was 20 to 50 µM; against OR28/OR7, above 20 µM; at TRP channel (TRPM8) (setting [1]) it was above 20 µM.

`Cc1cccc(NC(=O)CCC2CCN(C(=O)CCOc3ccccc3)CC2)c1` [RU-0030324]: the inhibition at 4 µM at OR8/OR7 is 26 to 50%; on OR10/OR7, 26 to 50%; at OR28/OR7 it was above 75%; on mOREG, 51 to 74%; at TRP channel (TRPM8) it was 26 to 50%. In addition, the IC50 at OR28/OR7 (Table B, read-out: IC50 OR28) was below 0.1 µM; against mOREG (Table B), above 1 µM.

On to `COc1ccc(OCC(=O)N2CCOC(Cc3ccccc3)C2)cc1` (stereo not drawn) [RU-0050384], for which the inhibition at 4 µM at OR8/OR7 was below 25%; at OR10/OR7, below 25%; at OR28/OR7, above 75%; at mOREG, below 25%; on TRP channel (TRPM8), below 25%. On OR28/OR7 (Table B, read-out: IC50 OR28), the IC50 lay within 0.1 to 1 µM.

On to `C=CCN(Cc1nccn1Cc1cccc(F)c1)C(=O)c1ccccc1F` [RU-I1], for which the IC50 at OR8/OR7 (setting [2]) was 20 to 50 µM; on OR10/OR7 (setting [3]) it was 2 to 20 µM; at OR28/OR7 (setting [4]), 20 to 50 µM; on TRP channel (TRPM8) (setting [1]) it was above 20 µM.

Turning to `Fc1cccc(Cl)c1Cn1ccnc1CN(CC1CCCC1)C1CC1` [RU-I4], the IC50 was above 220 µM at OR8/OR7 (setting [2]), above 20 µM on OR10/OR7 (setting [3]), 2 to 20 µM on OR28/OR7 (setting [4]) and above 20 µM at TRP channel (TRPM8) (setting [1]).

`CC(C)Nc1nc(NC(C)C)nc(C(F)(F)F)n1` [RU-T8]: the IC50 was 2 to 20 µM against OR8/OR7, above 20 µM at OR10/OR7, above 20 µM against OR28/OR7 and above 20 µM on TRP channel (TRPM8).

Turning to `CCNc1nc(Cl)nc(NC(C)C)n1` [RU-T5], the IC50 at OR8/OR7 is below 2 µM; against OR10/OR7 it was 2 to 20 µM; against OR28/OR7 it was above 20 µM; at TRP channel (TRPM8) (setting [1]), above 20 µM.

As for `CC(C)Nc1nc(Cl)nc(N(C)C(C)C)n1` [RU-T7], the IC50 is below 2 µM against OR8/OR7, above 20 µM at OR10/OR7, above 20 µM against OR28/OR7 and above 20 µM against TRP channel (TRPM8).

On to `O=C(C1CCCC1)N(Cc1nccn1CCc1c(F)cccc1Cl)C1CC1` [RU-I2], for which the IC50 is 2 to 20 µM on OR8/OR7 (setting [2]), 2 to 20 µM at OR10/OR7 (setting [3]), 2 to 20 µM on OR28/OR7 (setting [4]) and above 20 µM on TRP channel (TRPM8) (setting [1]).

On to `Cc1nc(NC(C)C)nc(NC(C)C)n1` [RU-T6], for which the IC50 against OR8/OR7 was below 2 µM; against OR10/OR7 it was above 20 µM; against OR28/OR7, 20 to 50 µM; on TRP channel (TRPM8) it was above 20 µM.

As for `CC(C)Nc1nc(Cl)nc(NC(C)C)n1` [RU-T1], the IC50 is above 220 µM at OR8/OR7, above 20 µM against OR10/OR7, above 220 µM at OR28/OR7 and above 20 µM on TRP channel (TRPM8) (setting [1]).

As for `CCNc1nc(NC(C)C)nc(SC)n1` [RU-T3], the IC50 against OR8/OR7 is 2 to 20 µM; at OR10/OR7, 2 to 20 µM; against OR28/OR7, 2 to 20 µM; on TRP channel (TRPM8) (setting [1]), above 20 µM.

For the compound `CN(Cc1nccn1Cc1c(F)cccc1Cl)C(=O)C1CCCC1` [RU-I5], the IC50 on OR8/OR7 (setting [2]) was 2 to 20 µM; at OR10/OR7 (setting [3]) it was above 20 µM; at OR28/OR7 (setting [4]), 2 to 20 µM; on TRP channel (TRPM8) (setting [1]), above 20 µM.

As to `CC(C)Nc1nc(Cl)nc(NCc2ccccc2)n1` [RU-T9], the half-maximal inhibitory concentration (IC50) against OR8/OR7 was above 220 µM; on OR10/OR7, above 20 µM; against OR28/OR7, above 50 µM; against TRP channel (TRPM8), above 20 µM.

Consider `O=C(c1nccn1Cc1c(F)cccc1Cl)N(CC1CCCC1)C1CC1` [RU-I3], for which the IC50 is below 2 µM at OR8/OR7 (setting [2]), 2 to 20 µM at OR10/OR7 (setting [3]), below 2 µM at OR28/OR7 (setting [4]) and above 20 µM at TRP channel (TRPM8) (setting [1]).

Consider `CCN(CC)C(=O)c1cccc(C)c1` [DEET, N,N-diethyl-m-toluamide, reference compound], for which the IC50 on OR8/OR7 (setting [2]) was above 50 µM; at OR10/OR7 (setting [3]), above 50 µM; on OR28/OR7 (setting [4]), above 50 µM; on TRP channel (TRPM8) (setting [1]), above 20 µM.
